Counter-ions that a name gives are not always drawn. Activity calls are given as the source filed them.
Tests used:
Coagulation factor XII = target: T1, Coagulation factor XII (Homo sapiens, UniProt P00748); assay type: functional;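 also: activated factor XIIa alpha cleaving a fluorogenic AMC peptide substrate; inhibitor potency from loss of enzyme activity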
T1 sequence (P00748 whole entry): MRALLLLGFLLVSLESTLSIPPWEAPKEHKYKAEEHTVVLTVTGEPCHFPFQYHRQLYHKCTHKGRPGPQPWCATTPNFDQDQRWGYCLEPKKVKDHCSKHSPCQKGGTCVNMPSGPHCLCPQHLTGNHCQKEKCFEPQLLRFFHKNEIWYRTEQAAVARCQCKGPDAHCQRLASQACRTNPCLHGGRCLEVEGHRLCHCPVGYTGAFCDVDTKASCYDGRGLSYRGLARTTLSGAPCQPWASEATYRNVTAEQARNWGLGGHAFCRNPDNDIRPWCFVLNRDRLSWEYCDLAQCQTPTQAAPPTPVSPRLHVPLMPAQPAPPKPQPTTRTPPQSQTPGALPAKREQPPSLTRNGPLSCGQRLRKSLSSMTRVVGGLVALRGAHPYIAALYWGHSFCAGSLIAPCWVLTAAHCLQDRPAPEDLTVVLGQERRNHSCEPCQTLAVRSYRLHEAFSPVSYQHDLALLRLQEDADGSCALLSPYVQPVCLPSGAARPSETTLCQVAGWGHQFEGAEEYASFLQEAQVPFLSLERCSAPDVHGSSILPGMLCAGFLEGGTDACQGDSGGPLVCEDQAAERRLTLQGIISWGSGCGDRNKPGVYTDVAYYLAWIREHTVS

[1] = target: SWI/SNF-related matrix-associated actin-dependent regulator of chromatin subfamily A member 2 (Homo sapiens, UniProt P51531); assay: Luminescence-based cell-based high throughput dose response assay to identify activators of the function of SWI/SNF related, matrix associated, actin dependent regulator of chromatin, subfamily a, member 2 (SMARCA2, BRM).; assay type: functional
Sequence of SWI/SNF-related matrix-associated actin-dependent regulator of chromatin subfamily A member 2 (P51531 whole entry): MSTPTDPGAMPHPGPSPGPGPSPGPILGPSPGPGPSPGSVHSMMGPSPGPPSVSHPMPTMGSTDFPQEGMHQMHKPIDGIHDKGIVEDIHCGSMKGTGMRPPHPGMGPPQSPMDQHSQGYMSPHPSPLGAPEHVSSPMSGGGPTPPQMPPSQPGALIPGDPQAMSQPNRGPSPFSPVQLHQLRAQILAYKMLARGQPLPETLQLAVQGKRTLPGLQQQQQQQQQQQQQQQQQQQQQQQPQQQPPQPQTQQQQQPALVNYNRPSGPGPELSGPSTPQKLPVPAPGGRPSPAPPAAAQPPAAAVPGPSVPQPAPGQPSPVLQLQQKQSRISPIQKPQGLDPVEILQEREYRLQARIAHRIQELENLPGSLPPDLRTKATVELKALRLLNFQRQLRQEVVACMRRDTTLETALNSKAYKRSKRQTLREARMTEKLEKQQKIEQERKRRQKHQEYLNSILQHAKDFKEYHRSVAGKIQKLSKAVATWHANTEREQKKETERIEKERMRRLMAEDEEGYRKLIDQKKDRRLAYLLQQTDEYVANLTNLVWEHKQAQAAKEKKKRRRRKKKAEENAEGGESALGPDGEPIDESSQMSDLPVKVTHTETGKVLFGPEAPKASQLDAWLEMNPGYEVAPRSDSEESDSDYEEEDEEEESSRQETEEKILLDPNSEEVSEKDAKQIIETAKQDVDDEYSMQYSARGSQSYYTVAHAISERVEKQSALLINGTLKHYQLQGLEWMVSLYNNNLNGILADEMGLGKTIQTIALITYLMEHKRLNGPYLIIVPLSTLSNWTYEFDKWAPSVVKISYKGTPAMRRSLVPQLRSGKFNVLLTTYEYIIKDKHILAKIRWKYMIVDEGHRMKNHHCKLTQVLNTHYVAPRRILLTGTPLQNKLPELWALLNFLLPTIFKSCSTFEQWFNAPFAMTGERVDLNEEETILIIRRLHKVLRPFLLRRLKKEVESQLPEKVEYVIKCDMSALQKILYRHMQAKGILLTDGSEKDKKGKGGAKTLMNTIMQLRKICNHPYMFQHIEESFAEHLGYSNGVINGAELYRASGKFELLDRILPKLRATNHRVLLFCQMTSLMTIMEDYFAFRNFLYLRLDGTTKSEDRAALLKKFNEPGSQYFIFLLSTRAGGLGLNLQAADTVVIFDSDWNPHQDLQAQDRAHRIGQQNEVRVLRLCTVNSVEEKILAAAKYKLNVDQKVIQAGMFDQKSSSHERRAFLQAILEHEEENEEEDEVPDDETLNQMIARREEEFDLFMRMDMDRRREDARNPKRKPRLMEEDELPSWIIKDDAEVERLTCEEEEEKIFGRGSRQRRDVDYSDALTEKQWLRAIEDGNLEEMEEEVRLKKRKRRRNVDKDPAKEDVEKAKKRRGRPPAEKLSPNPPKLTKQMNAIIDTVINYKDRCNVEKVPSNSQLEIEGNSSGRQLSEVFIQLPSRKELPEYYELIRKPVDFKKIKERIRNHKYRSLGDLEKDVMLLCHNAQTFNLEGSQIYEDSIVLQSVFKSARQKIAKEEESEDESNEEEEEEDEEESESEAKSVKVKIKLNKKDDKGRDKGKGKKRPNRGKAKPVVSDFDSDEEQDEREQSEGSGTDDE

[2] = Counterscreen for activators of the function of SWI/SNF related, matrix associated, actin dependent regulator of chromatin, subfamily a, member 2 (SMARCA2, BRM): Luminescence-based cell-based high throughput dose response assay to identify non-selective compounds using the VP16 reporter assay.; assay type: functional
[3] = viability loss in THP-1 monocytes – THP-1 cells, cytotoxicity control for Vif-APOBEC3G degradation inhibitor project, dose response (AID 1117359); assay type: functional; settings: THP-1
[4] = HEK-293T viability loss after treatment – luminescence, T-cell screen hits, cytotoxicity control for TCR NF-kB inhibitor project, dose response (AID 489026); assay type: functional, cell-based;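 also: cells exposed to compound about 14 hours before the viability readout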
[5] = cytotoxicity toward MDA-MB-231 breast cancer cells – cell-based, CellTiter-Glo luminescence, cherry-pick, cytotoxicity control for RAD54 inhibitor project, dose response (AID 651692); assay type: functional
[6] = Luminescence Cell-Based Dose Retest to Confirm Inhibitors of Cancer Stem Cells. [Related pubchem assays (depositor defined):AID2717, AID2721]; assay type: functional; settings: Homo sapiens
[7] = reduction of Shn3 3'UTR-driven luciferase in osteoblasts – cell-based, Clone20 osteoblasts, firefly luciferase, cherry-picked, dose response (AID 624132); assay type: functional;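 also: firefly luciferase luminescence from reporter carrying the Shn3 3'UTR in osteoblasts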
[8] = loss of viability in HepG2 cells – cell-based, CellTiter-Glo, cherry-picked, cytotoxicity control for Shn3 inhibitor project, dose response (AID 624134); assay type: functional
[9] = target: T2, DNA repair protein RAD52 homolog (Homo sapiens, UniProt P43351); assay type: functional, biochemical
T2 sequence (P43351 whole entry): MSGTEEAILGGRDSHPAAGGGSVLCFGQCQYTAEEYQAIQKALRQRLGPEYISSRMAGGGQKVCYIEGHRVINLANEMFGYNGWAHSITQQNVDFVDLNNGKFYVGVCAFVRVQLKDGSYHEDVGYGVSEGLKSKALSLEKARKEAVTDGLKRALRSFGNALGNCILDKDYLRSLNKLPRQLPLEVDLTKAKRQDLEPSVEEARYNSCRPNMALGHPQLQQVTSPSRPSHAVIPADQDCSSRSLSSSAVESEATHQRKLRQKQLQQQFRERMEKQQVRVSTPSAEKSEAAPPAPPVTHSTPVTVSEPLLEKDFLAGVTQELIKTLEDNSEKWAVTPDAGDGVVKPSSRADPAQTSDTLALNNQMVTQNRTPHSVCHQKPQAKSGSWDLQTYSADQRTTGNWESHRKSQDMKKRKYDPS

[10] = acridine orange displacement from DNA – biochemical, fluorescence polarization, cherry-pick, artefact control for RAD54 inhibitor project, dose response (AID 651673); assay type: functional
[11] = target: FAD-linked sulfhydryl oxidase ALR (Homo sapiens, UniProt P55789); assay: ALR-catalysed DTT oxidation blockers – biochemical, H2O2 detection, luminescence, cherry-pick, dose response (AID 493248)
Sequence of FAD-linked sulfhydryl oxidase ALR (P55789 whole entry): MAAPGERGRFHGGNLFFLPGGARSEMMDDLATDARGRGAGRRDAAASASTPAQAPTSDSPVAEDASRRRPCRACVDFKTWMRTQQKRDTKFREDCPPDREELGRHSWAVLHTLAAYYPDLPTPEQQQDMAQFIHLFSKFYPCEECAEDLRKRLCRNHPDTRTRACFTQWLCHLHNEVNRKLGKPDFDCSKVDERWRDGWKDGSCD

[12] = non-specific 3'UTR reporter inhibition in Clone20-Shn3RL – cell-based, Renilla luciferase, cherry-picked, counter-screen for Shn3 inhibitor project, dose response (AID 624133); assay type: functional
[13] = target: T3, DNA repair and recombination protein RAD54-like (Homo sapiens, UniProt Q92698); assay: RAD54 Holliday junction migration blockers – biochemical, fluorescence, cherry-picked samples, dose series, confirmation (AID 651657); assay type: functional
T3 sequence (Q92698 whole entry): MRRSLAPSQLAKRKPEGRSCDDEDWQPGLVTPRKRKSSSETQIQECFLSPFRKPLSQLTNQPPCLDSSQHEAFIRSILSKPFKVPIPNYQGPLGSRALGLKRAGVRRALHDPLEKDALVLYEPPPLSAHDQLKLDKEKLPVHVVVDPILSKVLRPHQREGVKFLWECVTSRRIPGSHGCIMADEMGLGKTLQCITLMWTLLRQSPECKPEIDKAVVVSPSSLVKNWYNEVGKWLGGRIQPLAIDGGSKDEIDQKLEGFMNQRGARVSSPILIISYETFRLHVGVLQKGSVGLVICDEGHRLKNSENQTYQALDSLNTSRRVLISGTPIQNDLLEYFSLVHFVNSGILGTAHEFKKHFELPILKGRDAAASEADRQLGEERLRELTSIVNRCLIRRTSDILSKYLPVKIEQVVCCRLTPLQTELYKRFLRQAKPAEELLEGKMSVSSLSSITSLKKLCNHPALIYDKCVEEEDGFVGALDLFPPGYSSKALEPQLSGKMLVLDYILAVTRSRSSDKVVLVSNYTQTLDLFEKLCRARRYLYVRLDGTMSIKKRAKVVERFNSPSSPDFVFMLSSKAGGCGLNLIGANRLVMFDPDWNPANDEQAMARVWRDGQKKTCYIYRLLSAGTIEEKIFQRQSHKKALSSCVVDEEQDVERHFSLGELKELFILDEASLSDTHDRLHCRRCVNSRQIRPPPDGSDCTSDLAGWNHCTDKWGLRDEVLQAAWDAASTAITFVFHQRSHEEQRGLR

[14] = target: T4, Low molecular weight phosphotyrosine protein phosphatase (Homo sapiens, UniProt P24666); assay type: functional; settings: read-out: IC50_Mean
T4 sequence (P24666 whole entry): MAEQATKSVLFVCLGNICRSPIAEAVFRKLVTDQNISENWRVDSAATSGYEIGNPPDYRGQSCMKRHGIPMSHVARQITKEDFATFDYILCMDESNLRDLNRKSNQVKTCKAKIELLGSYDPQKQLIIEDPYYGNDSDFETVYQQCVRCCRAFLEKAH

[15] = target: 26S proteasome non-ATPase regulatory subunit 14 (Homo sapiens, UniProt O00487); assay: inhibition of proteasome subunit RPN11 – biochemical, fluorescence polarization, uHTS hits, confirmation (AID 602368); assay type: functional
Sequence of 26S proteasome non-ATPase regulatory subunit 14 (O00487 whole entry): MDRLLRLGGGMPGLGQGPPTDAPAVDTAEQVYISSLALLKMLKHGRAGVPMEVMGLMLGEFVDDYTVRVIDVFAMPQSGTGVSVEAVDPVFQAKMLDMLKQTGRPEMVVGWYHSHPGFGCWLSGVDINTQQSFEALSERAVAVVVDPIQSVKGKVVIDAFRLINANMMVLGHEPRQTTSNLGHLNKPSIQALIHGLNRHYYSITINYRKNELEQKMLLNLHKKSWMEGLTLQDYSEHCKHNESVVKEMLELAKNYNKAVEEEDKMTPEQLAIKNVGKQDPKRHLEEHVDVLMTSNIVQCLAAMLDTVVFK

Prothrombin = Prothrombin (Bos taurus, UniProt P00735); assay: thrombin protease inhibitors – biochemical, fluorescence polarization, uHTS hits, dose response (AID 602369); assay type: functional
[16] = target: T5, Carboxy-terminal domain RNA polymerase II polypeptide A small phosphatase 1 (Homo sapiens, UniProt Q9GZU7); assay: CTDSP1 inhibitors, concentration-response, biochemical, absorbance readout, ultra-high-throughput screen actives (AID 540297); assay type: functional
T5 sequence (Q9GZU7 whole entry): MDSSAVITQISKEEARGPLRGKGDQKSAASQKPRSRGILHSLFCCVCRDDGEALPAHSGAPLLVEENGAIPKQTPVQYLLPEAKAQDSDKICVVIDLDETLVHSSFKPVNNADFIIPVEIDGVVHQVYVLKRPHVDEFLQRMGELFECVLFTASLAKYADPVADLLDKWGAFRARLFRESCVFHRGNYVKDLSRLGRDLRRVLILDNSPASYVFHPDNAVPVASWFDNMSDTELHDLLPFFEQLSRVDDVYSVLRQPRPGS

[17] = target: 72 kDa type IV collagenase (Homo sapiens, UniProt P08253); assay: Dose Response validation of uHTS RPN11 inhibitor hits using a MMP-2 Fluorescence assay.; assay type: functional
Sequence of 72 kDa type IV collagenase (P08253 whole entry): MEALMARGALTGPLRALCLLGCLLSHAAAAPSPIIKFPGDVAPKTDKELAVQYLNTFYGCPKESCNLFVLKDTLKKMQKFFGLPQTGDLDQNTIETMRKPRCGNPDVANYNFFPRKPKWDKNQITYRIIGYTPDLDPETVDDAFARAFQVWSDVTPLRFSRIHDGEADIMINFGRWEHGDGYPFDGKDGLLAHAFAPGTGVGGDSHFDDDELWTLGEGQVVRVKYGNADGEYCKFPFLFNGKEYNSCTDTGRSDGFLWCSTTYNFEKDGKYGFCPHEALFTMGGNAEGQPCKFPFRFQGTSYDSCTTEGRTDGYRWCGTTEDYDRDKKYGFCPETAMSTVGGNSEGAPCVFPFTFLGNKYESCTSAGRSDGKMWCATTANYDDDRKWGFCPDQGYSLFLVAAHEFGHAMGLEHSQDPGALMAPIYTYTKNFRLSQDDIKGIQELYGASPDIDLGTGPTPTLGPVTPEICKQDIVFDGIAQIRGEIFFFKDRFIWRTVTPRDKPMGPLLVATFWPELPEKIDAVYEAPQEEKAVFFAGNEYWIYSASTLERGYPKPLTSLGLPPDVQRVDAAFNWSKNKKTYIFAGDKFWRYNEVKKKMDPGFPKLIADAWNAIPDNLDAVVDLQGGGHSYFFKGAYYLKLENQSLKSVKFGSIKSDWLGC

[18] = target: T4, Low molecular weight phosphotyrosine protein phosphatase; assay type: functional; settings: read-out: IC50_Mean; remark: listed apart in the source
[19] = target: T6, Tyrosine-protein phosphatase non-receptor type 22 (Homo sapiens, UniProt Q9Y2R2); assay: PTPN22 enzyme inhibitors – biochemical, fluorescence, LYP catalytic domain, selectivity assay for LMPTP inhibitor project, dose response (AID 652006); assay type: functional; settings: read-out: IC50_Mean
T6 sequence (Q9Y2R2 whole entry): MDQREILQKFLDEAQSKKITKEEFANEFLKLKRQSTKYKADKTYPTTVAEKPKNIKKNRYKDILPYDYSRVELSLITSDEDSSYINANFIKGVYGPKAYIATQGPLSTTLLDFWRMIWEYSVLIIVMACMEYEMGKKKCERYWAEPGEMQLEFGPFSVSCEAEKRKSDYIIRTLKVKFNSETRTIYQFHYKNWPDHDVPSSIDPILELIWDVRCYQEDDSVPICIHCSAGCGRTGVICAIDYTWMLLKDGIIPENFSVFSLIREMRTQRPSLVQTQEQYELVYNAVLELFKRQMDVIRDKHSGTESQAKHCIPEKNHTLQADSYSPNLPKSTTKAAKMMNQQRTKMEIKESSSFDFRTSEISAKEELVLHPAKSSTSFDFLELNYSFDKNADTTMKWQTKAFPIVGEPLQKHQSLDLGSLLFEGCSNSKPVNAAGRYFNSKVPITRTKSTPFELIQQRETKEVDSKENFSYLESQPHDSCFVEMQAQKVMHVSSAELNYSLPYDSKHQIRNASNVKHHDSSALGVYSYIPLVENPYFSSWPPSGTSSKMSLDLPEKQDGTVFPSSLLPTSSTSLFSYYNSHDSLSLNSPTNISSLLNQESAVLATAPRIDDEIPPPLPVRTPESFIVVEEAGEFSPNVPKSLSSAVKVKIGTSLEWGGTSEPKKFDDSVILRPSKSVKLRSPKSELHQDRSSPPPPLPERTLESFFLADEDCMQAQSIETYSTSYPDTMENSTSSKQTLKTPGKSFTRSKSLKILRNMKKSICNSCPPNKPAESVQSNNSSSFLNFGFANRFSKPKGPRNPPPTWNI

## CC1(C)CC(=O)C(=NNc2ccc(Br)cc2)C(=O)C1
Coagulation factor XII
  IC50: > 50 µM (inactive)
[1]
  EC50: > 91.1 µM (inactive)
[2]
  EC50: > 91.1 µM (inactive)
[3]
  CC50: > 40 µM (active)

## COc1cc(NS(C)(=O)=O)ccc1Nc1c2ccccc2nc2ccccc12 [AMSACRINE HYDROCHLORIDE]
[4]
  IC50: > 80 µM (inactive)
[5]
  AC50: 23.3 µM (active)
[6]
  AC50: 0.91 µM (active)
[7]
  AC50: 1.32 µM (active)
[8]
  AC50: 18.9 µM (active)
[9]
  AC50: 6.83 µM (active)
[10]
  AC50: 39.4 µM (active)
[11]
  AC50: 16 µM (active)
[12]
  AC50: 7.09 µM (active)
[13]
  AC50: 11.6 µM (active)

## O=C(/C=C/c1ccccc1Cl)Nc1ccc2c(c1)C(=O)NC2=O
[14]
  IC50: 12 µM (active)
[15]
  IC50: 17.9 µM (active)
Prothrombin
  IC50: 61.6 µM (active)
[16]
  IC50: 3.73 µM (active)
[17]
  IC50: 12 µM (active)
[18]
  IC50: 15.8 µM (active)
[19]
  IC50: 29 µM (inactive)
